The source of these data is PMC12645191, “Dicarboxylate and dicarboxylic acid appended supramolecular self-associating amphiphiles as antimicrobial agents against high priority bacterial pathogens” (Organic & Biomolecular Chemistry, 2025).

Where “and” joins values, the source holds several entries; their conditions need not be identical. Equal entries are not always repeated. Where two headings read alike, the source gives them in different places.

In one data set the test system is K. pneumoniae M6. The data set is described as follows: inhibition of bacterial growth, OD600 after 20 h. The format is cell-based, Klebsiella pneumoniae. Conditions: SSA 5.0 mM, 2.5% ethanol, negative = enhanced growth; for inhibition at 5000 µM: Klebsiella pneumoniae, M6, 20 h, read-out: Percentage inhibition of bacterial growth, M6 (K. pneumoniae).
A further data set deals with A. baumannii ATCC 17978. Put plainly: inhibition of bacterial growth, OD600 after 20 h. To be noted: SSA 5.0 mM, 2.5% ethanol, negative = enhanced growth. The format is cell-based, Acinetobacter baumannii.
Data set [1] is described as follows: protein binding in human plasma by equilibrium dialysis. The format is in vitro ADME. Conditions: human plasma, 5 µM, 37 °C; for recovery at 6 h, 5 µM / remaining at 6 h, 5 µM / fraction unbound at 6 h, 5 µM: human; for remaining at 6 h, 5 µM / fraction unbound at 6 h, 5 µM: plasma. On the procedure: Metabolic stability was assessed in mouse and rat liver microsomes. […] A plasma protein binding assay was performed to assess the extent of compound binding to plasma proteins. This is key as only unbound compound is free to distribute and exert a pharmacological effect. […] To assess the potential for this sub-class of SSAs to be developed as drugs for oral administration, Caco-2 permeability assays were also performed, as a cellular model indicative of human intestinal permeability. […] The […] MS/MS analysis. Samples were analysed using a Shimadzu liquid chromatography system coupled to a Triple Quad 6500+ mass spectrometry (AB Inc.) Separation of compounds was achieved using an HSS T3 column (50 x 2.1 mm) at a temperature of 40 °C and a binary mobile phase gradient at a flow rate of 0.7 mL/min. […] This was ramped to 95 % solvent B at 0.7 minutes, held for 0.5 minutes and then […] returned to initial conditions. Sample analysis was by electrospray ionisation. Protein Binding Measurements in Human Plasma by Using Equilibrium Dialysis Method : The fraction unbound in human plasma (P -KB, Ltd People's hospital of Shandong) were measured using 96-well Equilibrium Dialysis Plate (HTDialysis LLC, Gales Ferry, CT). Human plasma containing 5 μM test compound were dialysed against dialysis buffer (PBS) with initial samples taken to allow for assessment of plasma stability and recovery before the plate was incubated for 6 hours at 37 °C at 5 % CO2. Samples were removed at 6 hours, and all samples […] appropriate analytical internal standard. Samples were centrifuged at 3,220 g for 30 minutes (Eppendorf 5810R) to precipitate protein and enable sampling of supernatant prior to appropriate dilution for liquid chromatography mass -spectrometry (LC-MS/MS) analysis. Samples were analysed using a Shimadzu coupled to a triple Quad 6500 + (AB Inc., Illinois). Separation of analytes was achieved using a Xselect Hss T3 (2.1 x 50 mm) column at a temperature of 40 °C and a binary mobile phase gra dient at a flow rate of 0.8 mL/min. Initial […] formic acid in acetonitrile); this was ramped to 98 % B at 0.5 min, held for 0.4 min and then immediately returned to initial conditions. Sample analysis was by electrospray ionisation in positive ion mode. Bi-directional Permeability in Caco-2 Cell Line: The bi-directional permeability in Caco-2 cell lines was determined by seeding cells onto an HTS Transwell plate. Cells were cultivated for 14-18 days in a cell culture incubator at 37 °C, 5 % CO2, 95 % relative humidity. Cell culture medium was replaced every other day. To assess monolayer integrity the transepithelial electrical resistance (TEER) across the monolayer was measured using Millicell Epithelial volt-ohm meter prior to assay and Lucifer yellow (LY) fluorescence measurement post-assay. Test and control compounds were prepared in DMSO and diluted in Hank's Balanced Saline […] Compound was added to the donor compartment of the transwell plate for both apical to basolateral (A>B) and basolateral to apical (B>A) measurements, with blank HBSS being added to the receiver compartment. The transwell plate was then incubated at 37 °C, 5 % CO2 for 2 hours. 5

Setting [2] is: 6 hours, read-out: % Bound (converted).

For orientation: inhibition means the relative decrease from the control value, in per cent. For the molecule `O=C(O)CC[C@H](NC(=O)Nc1ccc(C(F)(F)F)cc1)C(=O)O` [SSA 1], the inhibition at 5000 µM in the data set with K. pneumoniae M6 amounted to 26.2%. Moreover, the “Percentage inhibition of bacterial growth, M6 (K. pneumoniae)” value (from here on “Percentage inhibition … (K. pneumoniae)”) in the data set on K. pneumoniae M6 is recorded as 26%. Further, the “Percentage inhibition of bacterial growth, ATCC 17978 (A. baumannii)” value (“Percentage inhibition … (A. baumannii)” for short) with A. baumannii ATCC 17978 was 90.67% and 91%. The molecule also had a recovery at 6 h, 5 µM in data set [1] (6 hours) of 97.3%. Also, the amount remaining at 6 h, 5 µM in data set [1] amounted to 104%. Besides, the fraction unbound at 6 h, 5 µM in data set [1] (setting [2]) was 0.217; in data set [1] (6 hours, read-out: % Unbound), 0.217.

On to `O=C(O)CC[C@H](NC(=O)Nc1ccc(C(F)(F)F)cc1)C(=O)O` [SSA 2], for which, in the data set with K. pneumoniae M6, the “Percentage inhibition … (K. pneumoniae)” value was 17.56% and 18%. Also, the “Percentage inhibition … (A. baumannii)” value with A. baumannii ATCC 17978 is -23.34% and −23%. Also, in data set [1], the “% Remaining at 6 hr” value stood at 108.64%. In data set [1] (6 hours), the “% Bound” value came out at 78.73%, the “% Recovery” value is reported as 97.50% and the “% Unbound” value is 21.27%.

For the molecule `O=C(O)CC[C@@H](NC(=O)Nc1ccc(C(F)(F)F)cc1)C(=O)O` [SSA 3], the inhibition at 5000 µM in the data set on K. pneumoniae M6 is 15.4%. The “Percentage inhibition … (K. pneumoniae)” value in the data set with K. pneumoniae M6 (listed as 3) is 15%. Also, the “Percentage inhibition … (A. baumannii)” value in the data set on A. baumannii ATCC 17978 (listed as 3) is 94.45% and 94%. Moreover, the recovery at 6 h, 5 µM in data set [1] (6 hours) worked out at 99.6%. Moreover, the share remaining at 6 h, 5 µM in data set [1] came out at 102%. Besides, the fraction unbound at 6 h, 5 µM in data set [1] (setting [2]) was 0.23; in data set [1] (6 hours, read-out: % Unbound), 0.23.

For `O=C(O)CC[C@H](NC(=O)Nc1ccc(Br)cc1)C(=O)O` [SSA 9], the “Percentage inhibition … (K. pneumoniae)” value with K. pneumoniae M6 (listed as 9) was 21.69% and 22%. For the same molecule, the “Percentage inhibition … (A. baumannii)” value in the data set on A. baumannii ATCC 17978 (listed as 9) is -8.08% and −8%. Also, the recovery at 6 h, 5 µM in data set [1] (6 hours) was found to be 94.9%. Also, in data set [1], the amount remaining at 6 h, 5 µM was 106%. The fraction unbound at 6 h, 5 µM in data set [1] (setting [2]) is 0.166; in data set [1] (6 hours, read-out: % Unbound), 0.166.
